Laboratory results: patent EP0445948A2, “Prostaglandins for inhibiting cartilage damage” (G.D. Searle & Co., priority 1990, dated 1991)

Experiments:
Format in all cases: cell-based
[1] = test system: human articular cartilage; experiment: Effect of misoprostol on IL1-induced inhibition of GAG synthesis (35SO4 incorporation after CPC precipitation); details: for 35SO4 uptake into GAG: 4 days, (SEM)
Protocol: The effect of misoprostol on the action of IL1 on human articular cartilage. This experiment was undertaken to determine the action of misoprostol on IL1 action on cartilage. A total of 160 replicates were performed. The study investigated the inhibition of synthesis of GAG by human articular cartilage over the IL1 concentration range 0.01 - 1 ng/ml. Misoprostol was investigated in the range of 0.1 to 100 ng/ml.
Cartilage from a person was used in this experiment. The experimental period was kept to 4 days with the medium being changed every 24 hours. The tissue was pulsed at 4 days with 5 µCi/ml ³⁵SO₄ in the conventional manner and its incorporation in GAG measured after CPC precipitation.

IL1-treated cartilage [2] = experiment: Pig articular cartilage organ culture: retention of GAG (methylene blue dye technique)
Protocol: (§1) A standard organ culture method was followed. Pieces of articular cartilage (4x1x1 mm) are cultured in DMEM and 5% fetal calf serum in an atmosphere of 5% CO₂ at 30°C. The culture medium was renewed every two days in an attempt to maintain the level of the compound undergoing evaluation. Integrity of the cartilage was determined by the retention of GAG using methylene blue dye technique, results were expressed as percentage remaining in the tissue at the end of the experiment. The synthetic activity of the chondrocytes was measured by the incorporation of^ 35SO₄ into GAG. In some of the evaluations incorporation of 3H-leucine into protein was measured as an index of cell viability.
(§2) Human recombinant IL1 alpha at a concentration of 1 ng/ml (nanograms/milliliter). At this concentration it was responsible for 68% loss in GAG content over the 8 day period whereas the control with either misoprostol vehicle or misoprostol at 200 ng/ml only lost between 4 and 7%. The cartilage was incubated in the presence of IL1 and misoprostol at 50, 100 and 200 ng/ml. […] At 100 ng/ml the GAG loss is reduced to 34 percent.

articular cartilage = experiment: Pig articular cartilage organ culture: incorporation of 3H-leucine into protein (index of cell viability); details: 0IL1 + Miso. 200ng/ml; (SEM)
Protocol: as §1, §2

IL1-treated cartilage [3] = experiment: Pig articular cartilage organ culture: incorporation of 35SO4 into GAG (synthetic activity of chondrocytes); details: (SEM)
Protocol: as §1, §2

Structure (SMILES): CCCCC(C)(O)C/C=C/[C@H]1[C@H](O)CC(=O)[C@@H]1CCCCCCC(=O)OC (mixture of isomers) [misoprostol, (+/-) methyl 11α,16-dihydroxy-16-methyl-9-oxoprost-13E-en-1-oate]
- protection against IL1-induced inhibition of GAG synthesis ([1]; 0.01 ng/ml IL1 (50% inhibition level), misoprostol at 10 ng/ml and at 100 ng/ml): significant protection
- protection against the action of 0.01 ng/ml hrIL1α ([1]; 0.01 ng/ml hrIL1α, misoprostol 100 ng/ml): complete protection
- protection against IL1-induced inhibition of GAG synthesis ([1]; 0.1 ng/ml IL1, misoprostol 100 ng/ml): modest protective activity
- protection against IL1-induced inhibition of GAG synthesis ([1]; 0.1 ng/ml IL1, misoprostol below 100 ng/ml): ineffective
- 35SO4 uptake into GAG ([1]; IL1 conc. 0.01 ng/ml, Misoprostol 0.1 ng/ml): 3086 (306) cpm/mg
- 35SO4 uptake into GAG ([1]; IL1 conc. 0.01 ng/ml, Misoprostol 1.0 ng/ml): 2919 (244) cpm/mg
- 35SO4 uptake into GAG ([1]; IL1 conc. 0.1 ng/ml, Misoprostol 0.1 ng/ml): 1113 (119) cpm/mg
- 35SO4 uptake into GAG ([1]; IL1 conc. 0.1 ng/ml, Misoprostol 1.0 ng/ml): 1062 (71) cpm/mg
- 35SO4 uptake into GAG ([1]; IL1 conc. 0.1 ng/ml, Misoprostol 10.0 ng/ml): 1102 (165) cpm/mg
- 35SO4 uptake into GAG ([1]; IL1 conc. 1.0 ng/ml, Misoprostol 0.1 ng/ml): 183 (23) cpm/mg
- 35SO4 uptake into GAG ([1]; IL1 conc. 1.0 ng/ml, Misoprostol 1.0 ng/ml): 171 (14) cpm/mg
- 35SO4 uptake into GAG ([1]; IL1 conc. 1.0 ng/ml, Misoprostol 10.0 ng/ml): 219 (28) cpm/mg
- 35SO4 uptake into GAG ([1]; IL1 conc. 1.0 ng/ml, Misoprostol 100.0 ng/ml): 193 (26) cpm/mg
- % Retention of GAG in tissue (IL1-treated cartilage [2]; 0IL1 + Miso. 200ng/ml, 8 day culture, (SEM)): 95.6 (1.9) %
- GAG loss (IL1-treated cartilage [2]; IL1 1 ng/ml + misoprostol 100 ng/ml, 8 days): 34%
- inhibition of the IL1 effect (GAG loss) (IL1-treated cartilage [2]; IL1 + misoprostol at 50, 100 and 200 ng/ml): highly significant inhibition
- direct effect on intact cartilage (IL1-treated cartilage [2]; misoprostol without IL1): no direct affect
- Uptake of 3H Leucine (articular cartilage): 70.9 (4.8) cpm/mg
- Uptake of 35 SO4 into GAG (IL1-treated cartilage [3]; 0IL1 + Miso. 200ng/ml): 29.6 (1.2) cpm/mg x 10^3
- Uptake of 35 SO4 into GAG (IL1-treated cartilage [3]; IL1 + Miso. 200ng/ml): 6.3 (0.8) cpm/mg x 10^3
